Results taken from US7815918B2, “Polypeptides and immunogenic conjugates capable of inducing antibodies against pathogens, and uses thereof” (priority 2003, dated 2010).
Entries after “also recorded” stand apart in the source; their conditions may differ. Ends that are not written are not given here.

How the values were obtained:
[1] = system: mAb 4F11(G1); experiment: Western blot of purified recombinant thioredoxin fusion proteins probed with mAb 4F11; type: binding, mouse; conditions: for reactivity with mAb 4F11 in Western blot: purified thioredoxin fusion protein separated by SDS-PAGE
From the text: MAb 4F11 was produced as described (Lee et al., “Molecular Characterization of KEX1, a Kexin-Like Protease in Mouse Pneumocystis carinii,” Gene 242:141-150 (2000), which is hereby incorporated by reference in its entirety). For colony immunoscreens and P. carinii immunofluorescence assays (IFAs), mAb 4F11 IgM ascites fluid was used at a 1:5000 dilution. For enzyme-linked immunosorbent assays (ELISA) and Western blots of purified recombinant proteins an IgG1 switch-variant of mAb 4F11(G1) (Gigliotti et al., “Passive Intranasal Monoclonal Antibody Prophylaxis Against Murine Pneumocystis carinii Pneumonia,” Infect. Immun. 70:1069-1074 (2002), which is hereby incorporated by reference in its entirety) was prepared by saturated ammonium sulfate precipitation of tissue culture supernatant and used at the indicated dilutions. MAb 2B5 is an IgG1 that recognizes a mouse P. carinii gpA (Gigliotti et al., “Antibody-Mediated Shift in the Profile of Glycoprotein A Phenotypes Observed in a Mouse Model of Pneumocystis carinii Pneumonia,” Infect. Immun. 64:1892-1899 (1996), which is hereby incorporated by reference in its entirety) and was used as a negative control in S. pneumoniae immunoblots and IFAs. MAb 1C7 is an anti-mouse P. carinii IgM used as an isotype control in IFAs against P. carinii derived from different hosts. Pooled hyperimmune sera against mouse P. carinii was obtained as described previously (Gigliotti et al., “Development of Murine Monoclonal Antibodies to Pneumocystis carinii,” J. Infect. Dis. 154:315-322 (1986), which is hereby incorporated by reference in its entirety).
To confirm reactivity of E. coli pSCREEN transformants with mAb 4F11, 5 mL overnight cultures were pelleted and resuspended in 200 μL of 1× Laemmli SDS running/sample buffer+5% β-mercaptoethanol, and 20 μL samples were separated on NuPAGE Bis-Tris 4-12% gels (Invitrogen) by SDS-PAGE. S. pneumoniae from blood agar plates was grown in 5 mL THY overnight, 1 mL aliquots were pelleted, resuspended in 200 μL 1× sample buffer, and 20 μL were resolved by SDS-PAGE. Purified recombinant protein was suspended in sample buffer in equal concentrations and separated as described for cell lysates. Western blots were performed as previously described (Lee et al., “Molecular Characterization of KEX1, a Kexin-Like Protease in Mouse Pneumocystis carinii,” Gene 242:141-150 (2000), which is hereby incorporated by reference in its entirety).
Production of 6×His-tagged thioredoxin fusion proteins using the pBADTHIO expression system in E. coli was performed following the manufacturer's instructions. Briefly, overnight cultures were diluted 1:40 in fresh LB+100 μg/mL ampicillin and grown at 37° C. with shaking to absorbance at 600 nm of approximately 0.5. For fusion protein induction, arabinose was added to a final concentration of 0.02% and cultures were grown an additional 5 hr at 37° C. with shaking. Cells were pelleted by centrifugation at 1000×g then resuspended in ⅕ original culture volume with lysis buffer (50 mM sodium phosphate, 6 M guanidine-HCl, 300 mM NaCl) and vortexed vigorously. Debris was pelleted by centrifugation at 10,000×g at 4° C. The supernatants were passed over a TALON affinity resin column (BD Biosciences, Palo Alto, Calif.) that had been pre-equilibrated with lysis buffer. The columns were then washed twice with 10 mL 50 mM sodium phosphate, 300 mM NaCl. The fusion proteins were eluted with 2 mL buffer containing 50 mM sodium phosphate, 300 mM NaCl, and 150 mM imidazole. The eluted protein was dialyzed overnight against PBS at 4° C. and concentrated by vacuum centrifugation. Protein concentrations were determined using a BCA microwell assay kit (Pierce, Rockford, Ill.).

[2] = system: mAb 4F11(G1); experiment: ELISA of epitope-thioredoxin fusion constructs using mAb 4F11(G1); type: binding, mouse
Protocol: (§1) Purified recombinant protein at a concentration of 10 μg/mL in 50 mM carbonate-bicarbonate buffer pH 9.5+0.1% SDS was used to coat Costar ELISA plates (Corning Incorporated, Corning, N.Y.) 16-20 hr at 37° C. The plates were blocked with 3% BSA-TBST for 1 hr at 4° C. Primary antibody was added in two-fold serial dilutions in 3% BSA-TBST and incubated at 4° C. for 1 hr. Goat anti-mouse IgG+IgM-alkaline phosphatase conjugate secondary antibody was added at 1:5000 dilution in BSA-TBST for one hr at 4° C. Blue Phos substrate (KPL, Gaithersburg Md.) was added for 30 min, color development was stopped with 2.5% EDTA, and absorbance was read at 655 nm using a Benchmark microplate reader (Bio-Rad).
Experimental ELISA results were statistically compared to the control values using a two-tailed Student's t test. Results were considered significant if p≦0.05.

[3] = molecular target: 4F11(G1) binding against plate-bound sonicated mouse P. carinii; experiment: Competitive (inhibition) ELISA: synthetic peptides as soluble competitors for 4F11(G1) binding to plate-bound sonicated mouse P. carinii
From the text: FIGS. 5A-F show the analysis of purified recombinant epitope-thioredoxin fusion proteins. FIG. 5A is a gel stained with Coomassie Blue. FIG. 5B is a Western blot using mAb 4F11(G1). FIG. 5C is a Western blot using anti-V5 epitope tag mAb. FIG. 5D is an ELISA of epitope-thioredoxin fusion constructs using mAb 4F11(G1). Results are plotted as the mean±standard error of triplicate experiments. […] Results are plotted as the mean±standard deviation of triplicate experiments. […] Results are plotted as the mean±standard deviation of triplicate experiments. The dashed line indicates the mean absorbance at 655 nm with no inhibitor and a 4F11(G1) dilution of 1:3200.
(§2) Mouse P. carinii Kexin 777-787 (RPAPPKPTPQP, SEQ ID NO: 56) and Kexin 131-142 (SGDTGNVNSGEK, SEQ ID NO: 57) peptides were purchased from Alpha Diagnostics (San Antonio, Tex.). ELISA experiments using the synthetic peptides were performed as described above, using 10 μg peptide/mL in carbonate-bicarbonate buffer to coat the plates. For competitive ELISA studies peptides were incubated at three fold dilutions with a starting concentration of 100 μg/mL for 2 hr with a 1:3200 dilution of mAb 4F11 at 4° C. to reach equilibrium. Mouse P. carinii sonicates in carbonate-bicarbonate buffer were used to coat ELISA plates at the equivalence of 4×10^4 cysts per well overnight at 4° C. The peptide-antibody mixtures, or antibody alone at 1:3200 dilution, were used as the primary antibody in the ELISA following the above protocol.

[4] = system: mAb 4F11(G1); experiment: ELISA of synthetic P. carinii peptides using mAb 4F11(G1); type: binding, mouse; conditions: 10 μg peptide/mL coat, no fusion partner
Protocol: as §1
as §2, with “The peptide-antibody mixtures, or antibody alone at 1:3200 dilution, were used as the primary antibody in the ELISA following the above protocol.” left out

[5] = system: hyperimmune sera from mice immunized with whole P. carinii; experiment: Western blot of A12 fusion protein with hyperimmune sera from P. carinii-immunized mice; type: binding, mouse
From the text: MAb 4F11 was produced as described (Lee et al., “Molecular Characterization of KEX1, a Kexin-Like Protease in Mouse Pneumocystis carinii,” Gene 242:141-150 (2000), which is hereby incorporated by reference in its entirety). For colony immunoscreens and P. carinii immunofluorescence assays (IFAs), mAb 4F11 IgM ascites fluid was used at a 1:5000 dilution. For enzyme-linked immunosorbent assays (ELISA) and Western blots of purified recombinant proteins an IgG1 switch-variant of mAb 4F11(G1) (Gigliotti et al., “Passive Intranasal Monoclonal Antibody Prophylaxis Against Murine Pneumocystis carinii Pneumonia,” Infect. Immun. 70:1069-1074 (2002), which is hereby incorporated by reference in its entirety) was prepared by saturated ammonium sulfate precipitation of tissue culture supernatant and used at the indicated dilutions. MAb 2B5 is an IgG1 that recognizes a mouse P. carinii gpA (Gigliotti et al., “Antibody-Mediated Shift in the Profile of Glycoprotein A Phenotypes Observed in a Mouse Model of Pneumocystis carinii Pneumonia,” Infect. Immun. 64:1892-1899 (1996), which is hereby incorporated by reference in its entirety) and was used as a negative control in S. pneumoniae immunoblots and IFAs. MAb 1C7 is an anti-mouse P. carinii IgM used as an isotype control in IFAs against P. carinii derived from different hosts. […]

[6] = at lower mAb 4F11 dilutions, plate coated 10 μg/mL

For R777PAPPKPTPQP787 [Kexin777-787], the “binding with mAb 4F11 compared with Kexin856-872, based on size and intensity of the Western blot band” value ([1]; 1 μg purified protein) was “enhanced binding”, the “ELISA reactivity with mAb 4F11” value ([2]; at higher mAb 4F11 dilutions) was “greater reactivity with mAb 4F11 than did the original 17mer epitope” and the “ELISA reactivity with mAb 4F11” value [2, 6] was “highest reactivity”. For the same molecule, the “50% inhibition of binding of mAb 4F11 to native P. carinii antigens” value ([3]; 4F11(G1) diluted 1:3200) was 150 ng/mL and the “concentration that completely blocks binding of mAb 4F11 to native P. carinii antigens” value ([3]; 4F11(G1) diluted 1:3200) was 1 µg/mL.

In the case of RPAPPKPTPQP [Kex777-787], the “ELISA reactivity of synthetic peptide to mAb 4F11” value [4] is reported as “high reactivity”.

“K856PAPKPTP863 (KPAPKPTP; not fully specified; printed as K856PAPKPTP863) [Kexin856-863]” was tested, and the “reactivity with mAb 4F11 in Western blot” value [1] was “positive reactivity”.

In the case of “K865PAPKPAP872 (KPAPKPAP; not fully specified; printed as K865PAPKPAP872) [Kexin865-872]”, the “reactivity with mAb 4F11 in Western blot” value [1] is reported as “positive reactivity”.

In the case of “K62PRPQPTSKPRPQPTP77 (KPRPQPTSKPRPQPTP; not fully specified; printed as K62PRPQPTSKPRPQPTP77) [A1262-77]”, the “ELISA reactivity to mAb 4F11” value ([2]; at 1:800 or greater dilution) is reported as “only background reactivity” and the “ELISA reactivity with mAb 4F11” value [2, 6] is reported as “lower reactivity, but significantly higher than the thioredoxin fusion partner alone”.

For “SGDTGNVNSGEK [Kex131-142, reference compound]”, the “inhibition of binding of mAb 4F11 to native P. carinii antigens” value ([3]; at the highest concentration tested) was “no inhibition” and the “ELISA reactivity of synthetic peptide to mAb 4F11” value [4] was “did not react”.

In the case of “K70PRPQPTP77 (KPRPQPTP; not fully specified; printed as K70PRPQPTP77) [A1270-77]”, the “reactivity with mAb 4F11 in Western blot” value [1] is reported as “positive reactivity”.

With “K856PAPKPTPPKPAPKPAP872 (KPAPKPTPPKPAPKPAP; not fully specified; printed as K856PAPKPTPPKPAPKPAP872) [Kexin856-872]” the “ELISA reactivity with mAb 4F11” value [2, 6] was “highest reactivity”.

For “E46PRPQPTS53 (EPRPQPTS; not fully specified; printed as E46PRPQPTS53) [A1246-53]”, the “reactivity with mAb 4F11 in Western blot” value [1] was “do not react with mAb 4F11”.

With “thioredoxin fusion partner: thioredoxin fusion partner alone, negative control for the fusion constructs [reference compound]” the “reactivity with mAb 4F11 in Western blot” value [1] was “does not react with mAb 4F11; also recorded: did not react with mAb 4F11” and the “reactivity with mAb 4F11 in Western blot” value ([1]; listed as fusion partner) was “did not react with mAb 4F11”.

In the case of “E54PQPQPAP61 (EPQPQPAP; not fully specified; printed as E54PQPQPAP61) [A1254-61]”, the “reactivity with mAb 4F11 in Western blot” value [1] is reported as “do not react with mAb 4F11”.

B1: URSP2 PspA: recombinant thioredoxin fusion protein containing the α-helical domain, clade defining region and proline-rich repeat region of URSP2 PspA (protein)
chain: EKELKEIDESDSEDYIKEGLRAPLQSKLDAKKAKLSKLEELSDKIDELDAEIAKLEKDVEDFKNSDGEQAEQYLVAAKKDLDAKKAELENTEADLKKAVDEPETPAPAPKPAPAPAPTPEAPAPAPKPAPAPKPAPAPAPTPEAPAPAPKPAPAPKPAPAPAPTPEAPAPAPKPAPAPRPAPAPKPAPDPKP
modifications: left off: large carriers
For B1, the “reactivity with mAb 4F11 in Western blot” value [1] was “shown to react with mAb 4F11”.

B2: A121-142: truncated A12 molecule, residues 1-142 of SEQ ID NO: 5, expressed as thioredoxin fusion protein (protein)
chain: TNISEPALPDKDPQPTSSPQPKPRPRPRPQPQPHPHPKPQPQPTPEPQPQPAPEPRPQPTSKPRPQPTSKPRPQPTPEPRPLPVPGPGPLPVPGPRPQPQPQPQPQPQPQPQPQPQPQPQPQPQPQPQPQPKPQPPSQSTSE
modifications: thioredoxin fusion partner
With B2 the “reactivity with mAb 4F11 in Western blot” value [1] was “reacted with mAb 4F11”.

B3: A121-82: truncated A12 molecule, residues 1-82 of SEQ ID NO: 5, expressed as thioredoxin fusion protein (protein)
chain: TNISEPALPDKDPQPTSSPQPKPRPRPRPQPQPHPHPKPQPQPTPEPQPQPAPEPRPQPTSKPRPQPTSKPRPQPTPEPRPL
modifications: thioredoxin fusion partner
With B3 the “reactivity with hyperimmune sera in Western blot” value [5] was “reacted with hyperimmune sera” and the “reactivity with mAb 4F11 in Western blot” value [1] was “reacted with mAb 4F11”.
